The text below walks through data of patent publication US7268161B2, “Comprehensive pharmacologic therapy for treatment of obesity including cysteine” (priority 1999, dated 2007).

One test relates to tachyphylaxis. As to the kind of experiment: Cysteine therapy in patients with tachyphylaxis from drugs that increase synaptic norepinephrine. Particulars: patients on drugs which cause increased levels of norepinephrine in the synapse. In kind it is in vivo. From the text: The core of Tyrosine Hydroxylase is a “heme-thiolate” protein (see FIG. 1). The “heme-thiolate” protein is composed of iron in the form of a cytochrome P-450 complex and Cysteine. Patients experiencing tachyphylaxis from drugs which cause increased levels of norepinephrine in the synapse, generally have serum iron levels which are normal.

The subject of another test is norepinephrine. As to conditions: drugs used in treatment of a patient for weight loss; cited from earlier work.

In the case of `N[C@@H](CS)C(=O)O` [Cysteine], in the test with tachyphylaxis, the reversal of tachyphylaxis result is on record as “effective in reversing the tachyphylaxis”. Consider `CC(C)(N)Cc1ccccc1` [Phentermine], for which, in the test on norepinephrine, the “increase of intersynaptic levels of norepinephrine” value is given as ≥ 2,500 times.
